Assay [1] has as its system HL-60 promyelocytic leukemia cells. The experiment in a line: Induction of differentiation of HL-60 cells (NBT reduction). The class given is cell-based, human. The following applies: 8 days; for EC50: Homo sapiens, HL-60, 192 h, from dose response curves, read-out: ED50 (concentration which induced differentiation of 50% of the cells). Here is the method: (§1) Inhibition of Cell Proliferation and Induction of Cell Differentiation
(§2) Cultures of HL-60 promyelocytic leukemia cells were established in the absence (control) and presence of various concentrations of test compounds. After an 8-day incubation period, the cultures were evaluated for proliferation of tumor cells, cell viability, and cellular differentiation. Proliferation was assessed by directly enumerating the increased number of tumor cells resulting from cell division during incubation. Viability was assessed by dye exclusion technique to learn whether any of the compounds were lethal to the cultured HL-60 cells. Cellular differentiation was evaluated by determining the number of cells which had acquired the enzymes necessary to support a respiratory burst, a characteristic of mature macrophages and granulocytes.
(§3) Tissue culture medium used in these experiments was RPMI-1640 supplemented to 10% v/v with heat-inactivated fetal bovine serum and to an additional 1.6 mM with L-glutamine.
(§4) Test compounds were dissolved in sufficient ethanol to yield stock solutions of 1×10^-2 or 1×10^-3 molar. Reduced lighting was used when working with compounds and stock solutions were stored in the dark at -20° C. in an argon atmosphere. Compounds were diluted in tissue culture medium and added to flasks containing HL-60 cells to achieve the final concentration described in each test.
(§5) The HL-60 tumor cell line was originally derived from a patient with promyelocytic leukemia and was obtained from the American Type Culture Collection. The cells were maintained in liquid culture by serial passage twice weekly in tissue culture medium. […] In any test, three replicate flasks were incubated without compound (control) or in the presence of varying concentrations of test compound. Ethanol, used as the vehicle, was kept constant in all dilutions in each test and had no effect on cell proliferation, viability or cell differentiation at the concentrations used (≤0.1%). After 8 days of incubation at 37° in a humidified atmosphere of 5% CO2 in air, cultures were evaluated for tumor cell proliferation, viability and differentiation.
Quantitation of differentiated cells was done by the biochemical method of nitroblue tetrazolum (NBT) reduction. One million HL-60 cells were pooled from replicate cultures, centrifuged at 220×g for 10 minutes, and resuspended in 1 ml of Ca^++ -Mg^++ -deficient phosphate buffered saline prepared by supplementing Ca^++ -Mg^++ -free phosphate buffered saline (PBS) to 20% v/v with heat-inactivated fetal bovine serum). Nitroblue tetrazolium was dissolved at 0.5 mg per ml in Ca^++ -Mg^++ -free PBS with gentle heating and frequent mixing. A stock solution of 1 mg tetradecanoyl phorbol acetate (TPA) per ml in ethanol, stored at -20°, was diluted 100-fold with Ca^++ -Mg^++ -free PBS to prepare a working solution. The test was done by adding 1 ml of NBT solution and 0.02 ml of the working TPA solution to the HL-60 cells. After mixing, the tubes were incubated in a 37° water bath for 25 minutes then transferred to ice. Undifferentiated and differentiated cells present in any sample were determined microscopically by surveying a minimum of 300 cells per sample. Cells without pigmented granules (clear cells) were judged to be undifferentiated while those containing greater than 3 blue-black formazan granules were scored as differentiated. Generally, differentiated cells were intensely pigmented clearly indicating the enzymatic conversion of NBT to formazan. Results are expressed as the percentage of differentiated cells present in any sample as calculated according to the formula: [formula] The results are also expressed as the concentration of compound which induced differentiation of 50% of the cells (ED50).

The test system is the same in assay [2]. Kind of assay: Inhibition of proliferation of HL-60 cells. The class given is cell-based. The note with it: Homo sapiens, HL-60, 192 h, 8 days; for inhibition at 0.001 µM: 0.1 × 10^-8 M; for inhibition at 0.01 µM: 1 × 10^-8 M; for inhibition at 0.1 µM: 10 × 10^-8 M; for IC50: from dose response curves, read-out: ID50 (concentration which reduced the cell number by 50%). The procedure:
as §1, §2, §3, §4, §5
Quantitation of proliferation was done by enumerating the number of HL-60 cells in each individual flask (3 flasks per experimental point) using an Elzone electronic particle counter. Results are shown as the percent reduction of cell number calculated for each concentration tested according to the formula: [formula] The results are also expressed as the concentration which reduced the cell number by 50% (ID50).

Another assay has as its system vitamin D deficient rats. The following applies: 3 weeks.
[3] abbreviates: read-out: % Reduction in cell number.

The text below walks through data of patent publication US4804502A, “Vitamin D compounds” (priority 1988, dated 1989).

Where two headings read alike, the source gives them in different places.

In the case of `C=C1/C(=C\C=C2/CCC[C@]3(C)[C@@H]([C@H](C)CC#CC(C)(C)O)CC[C@@H]23)C[C@@H](O)C[C@@H]1O` [Compound A, 1α,25-dihydroxy-23-yne-cholecalciferol], the figures for the “% Differentiated cells” value in assay [1] (0.1 × 10^-8 M), in assay [1] (1 × 10^-8 M) and in assay [1] (10 × 10^-8 M) were 15%, 54% and 98%, respectively. Besides, the EC50 in assay [1] amounted to 9 nM. In addition, in assay [2] (setting [3]), the inhibition at 0.001 µM is 30%. Further, in assay [2] (setting [3]), the inhibition at 0.01 µM was found to be 67%. For the same compound, the inhibition at 0.1 µM in assay [2] (setting [3]) was 85%. In addition, in assay [2], the IC50 amounted to 6 nM.
As for `C=C1/C(=C\C=C2/CCC[C@]3(C)[C@@H]([C@H](C)CC#CC(O)(C(F)(F)F)C(F)(F)F)CC[C@@H]23)C[C@@H](O)C[C@@H]1O` [Compound B], in the assay with vitamin D deficient rats (daily dose 18 ng), the “Bone Mass” value is reported as 385 ± 77 mm^3 /cm^3, the “Serum Ca^2+” value turned out to be 15.63 ± 0.36 mg/dL and the “Serum PO4^2-” value stood at 7.66 ± 0.17 mg/dL. Moreover, in the assay on vitamin D deficient rats (daily dose 72 ng), the “Bone Mass” value is given as 746 + 48 mm^3 /cm^3, the “Serum Ca^2+” value turned out to be 15.23 ± 0.22 mg/dL and the “Serum PO4^2-” value turned out to be 6.34 ± 0.26 mg/dL. Also, in assay [1] (0.01 × 10^-8 M), the “% Differentiated cells” value stood at 13%. In addition, in assay [1] (0.1 × 10^-8 M), the “% Differentiated cells” value was 29%. Also, in assay [1] (1 × 10^-8 M), the “% Differentiated cells” value came out at 95%. The “% Differentiated cells” value in assay [1] (10 × 10^-8 M) turned out to be 98%. In addition, the EC50 in assay [1] worked out at 2 nM. The inhibition at 0.0001 µM in assay [2] (0.01 × 10^-8 M, read-out: % Reduction in cell number) was found to be 15%. For the same compound, in assay [2] (setting [3]), the inhibition at 0.001 µM was determined as 31%, the inhibition at 0.01 µM came to 85% and the inhibition at 0.1 µM came out at 89%. Besides, the IC50 in assay [2] is 2 nM.
